Source: the supplement of paper PMC10883282
± gives the standard deviation of the averaged measurements.

System: SK-LMS-1
Assay: relative viability vs DMSO control (72 h) (fraction); higher = more viable cells
In short: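 Sarcoma cell lines were plated in 384 wells to reach 80–90% confluence, treated after 24 h with 2.5 µl of serially diluted compound and held 72 h at 37 °C, 5% CO2. Relative viability was taken as percent growth from ATPLite readings, averaged over up to triplicate wells. The values were rescaled so that 1 marks full and 0 marks none.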

Row | SMILES | relative viability (0.00017 µM) | relative viability (0.00051 µM) | relative viability (0.00152 µM) | relative viability (0.00457 µM) | relative viability (0.01372 µM) | relative viability (0.04115 µM) | relative viability (0.1235 µM) | relative viability (0.3704 µM) | relative viability (1.111 µM) | relative viability (3.333 µM) | relative viability (10 µM) | relative viability (2 pM) | relative viability (5 pM) | relative viability (15 pM) | relative viability (50 pM) | relative viability (0.00014 µM) | relative viability (0.00041 µM) | relative viability (0.0012 µM) | relative viability (0.0037 µM) | relative viability (0.011 µM) | relative viability (200 fM) | relative viability (600 fM)
1 | Cc1ccc(F)c(NC(=O)Nc2ccc(-c3cccc4[nH]nc(N)c34)cc2)c1 [Linifanib] | 0.97 ± 0.011 | 1 ± 0.02 | 1.02 ± 0.022 | 1.01 ± 0.038 | 1.03 ± 0.037 | 1.01 ± 0.041 | 1.02 ± 0.05 | 1.04 ± 0.059 | 1.099 ± 0.0016 | 1.05 ± 0.058 | 1.06 ± 0.075 | – | – | – | – | – | – | – | – | – | – | –
2 | C[C@]1(O)C[C@@H](c2nc(-c3ccc4ccc(-c5ccccc5)nc4c3)c3c(N)nccn32)C1 [Linsitinib] | 1.04 ± 0.02 | 1.07 ± 0.022 | 1.05 ± 0.067 | 1.07 ± 0.025 | 1.04 ± 0.022 | 1.01 ± 0.025 | 1.01 ± 0.034 | 1.03 ± 0.019 | 1.01 ± 0.026 | 0.938 ± 0.011 | 0.71 ± 0.027 | – | – | – | – | – | – | – | – | – | – | –
3 | Cc1ccc(NC(=O)c2ccc(CN3CCN(C)CC3)cc2)cc1Nc1nc(-c2cccnc2)cs1 [Masitinib] | 1.03 ± 0.013 | 1.05 ± 0.031 | 1.03 ± 0.022 | 1.02 ± 0.029 | 1.02 ± 0.029 | 1.04 ± 0.03 | 1.01 ± 0.018 | 1.008 ± 0.0068 | 0.953 ± 0.051 | 0.605 ± 0.0079 | 0.103 ± 0.0046 | – | – | – | – | – | – | – | – | – | – | –
4 | CC1(C)CNc2cc(NC(=O)c3cccnc3NCc3ccncc3)ccc21 [Motesanib] | 1.04 ± 0.042 | 1.02 ± 0.013 | 1.024 ± 0.0066 | 1.02 ± 0.016 | 1.06 ± 0.025 | 1.03 ± 0.033 | 1.02 ± 0.04 | 1.04 ± 0.027 | 0.99 ± 0.037 | 0.986 ± 0.017 | 0.925 ± 0.02 | – | – | – | – | – | – | – | – | – | – | –
5 | CC(C)N1CCN(Cc2cnc(-c3cc(-c4cccc5[nH]ccc45)cc4[nH]ncc34)o2)CC1 [Nemiralisib] | 1.05 ± 0.047 | 1.02 ± 0.033 | 1.06 ± 0.038 | 1.04 ± 0.011 | 1.04 ± 0.047 | 1.05 ± 0.04 | 1.042 ± 0.0068 | 0.994 ± 0.033 | 0.928 ± 0.012 | 0.821 ± 0.029 | 0.658 ± 0.041 | – | – | – | – | – | – | – | – | – | – | –
6 | C=CC(=O)Nc1cccc(Oc2nc(Nc3ccc(N4CCN(C)CC4)cc3)nc3ccsc23)c1 [Olmutinib] | 1.06 ± 0.047 | 1.08 ± 0.013 | 1.07 ± 0.044 | 1.076 ± 0.006 | 1.09 ± 0.029 | 1.06 ± 0.015 | 1.08 ± 0.013 | 1.05 ± 0.04 | 0.976 ± 0.033 | 0.843 ± 0.016 | 0.113 ± 0.03 | – | – | – | – | – | – | – | – | – | – | –
7 | CC(C)(C)c1cc(NC(=O)Nc2ccc(-c3cn4c(n3)sc3cc(OCCN5CCOCC5)ccc34)cc2)no1 [Quizartinib] | 1.05 ± 0.018 | 1.07 ± 0.038 | 1.07 ± 0.029 | 1.03 ± 0.042 | 1.06 ± 0.043 | 1.05 ± 0.04 | 1.06 ± 0.018 | 0.979 ± 0.04 | 0.932 ± 0.019 | 0.832 ± 0.045 | 0.528 ± 0.029 | – | – | – | – | – | – | – | – | – | – | –
8 | CNC(=O)c1cc(Oc2ccc(NC(=O)Nc3ccc(Cl)c(C(F)(F)F)c3)c(F)c2)ccn1 [Regorafenib] | 1.12 ± 0.046 | 1.11 ± 0.018 | 1.12 ± 0.082 | 1.11 ± 0.03 | 1.17 ± 0.053 | 1.08 ± 0.073 | 1.11 ± 0.079 | 1.05 ± 0.036 | 0.938 ± 0.066 | 0.719 ± 0.035 | 0.0852 ± 0.017 | – | – | – | – | – | – | – | – | – | – | –
9 | CO[C@H]1C[C@@H]2CC[C@@H](C)[C@@](O)(O2)C(=O)C(=O)N2CCCC[C@H]2C(=O)O[C@H]([C@H](C)C[C@@H]2CC[C@@H](OP(C)(C)=O)[C@H](OC)C2)CC(=O)[C@H](C)/C=C(\C)[C@@H](O)[C@@H](OC)C(=O)[C@H](C)C[C@H](C)/C=C/C=C/C=C/1C [Ridaforolimus] | 1.01 ± 0.067 | 0.903 ± 0.025 | 0.753 ± 0.016 | 0.67 ± 0.018 | 0.632 ± 0.029 | 0.594 ± 0.031 | 0.559 ± 0.022 | 0.563 ± 0.031 | 0.554 ± 0.021 | 0.5602 ± 0.0032 | 0.5145 ± 0.0018 | – | – | – | – | – | – | – | – | – | – | –
10 | COCc1c(-c2cc3cc(C)cc(OC)c3s2)c2c(N)ncnn2c1CN1CCNC(=O)C1 [Rogaratinib] | 1.01 ± 0.034 | 0.992 ± 0.026 | 1.02 ± 0.022 | 1.01 ± 0.044 | 0.995 ± 0.022 | 0.992 ± 0.035 | 1 ± 0.01 | 0.975 ± 0.017 | 0.96 ± 0.036 | 0.76 ± 0.019 | 0.589 ± 0.017 | – | – | – | – | – | – | – | – | – | – | –
11 | N#CC[C@H](C1CCCC1)n1cc(-c2ncnc3[nH]ccc23)cn1 [Ruxolitinib] | 1.03 ± 0.012 | 1 ± 0.037 | 0.995 ± 0.036 | 1.03 ± 0.034 | 1.036 ± 0.0052 | 1.035 ± 0.0072 | 1.02 ± 0.021 | 1.03 ± 0.029 | 1.03 ± 0.039 | 0.986 ± 0.033 | 0.828 ± 0.02 | – | – | – | – | – | – | – | – | – | – | –
12 | Cc1cc(C)c(/C=C2\C(=O)Nc3ccccc32)[nH]1 [Semaxanib] | 0.927 ± 0.045 | 0.907 ± 0.044 | 0.897 ± 0.025 | 0.878 ± 0.033 | 0.897 ± 0.053 | 0.874 ± 0.039 | 0.872 ± 0.02 | 0.894 ± 0.018 | 0.905 ± 0.027 | 0.871 ± 0.033 | 0.811 ± 0.013 | – | – | – | – | – | – | – | – | – | – | –
13 | Cc1nc(-c2cn3c(n2)-c2ccc(-c4cnn(C(C)(C)C(N)=O)c4)cc2OCC3)n(C(C)C)n1 [Taselisib] | 0.978 ± 0.027 | 1.035 ± 0.0056 | 0.993 ± 0.043 | 0.9916 ± 0.0093 | 0.949 ± 0.021 | 0.833 ± 0.017 | 0.739 ± 0.018 | 0.676 ± 0.011 | 0.6 ± 0.023 | 0.454 ± 0.012 | 0.315 ± 0.016 | – | – | – | – | – | – | – | – | – | – | –
14 | CN1CCC(COc2cnc(-c3cccc(Cn4nc(-c5cccc(C#N)c5)ccc4=O)c3)nc2)CC1 [Tepotinib] | 1.06 ± 0.027 | 1.05 ± 0.022 | 1.01 ± 0.037 | 1.05 ± 0.039 | 1 ± 0.047 | 0.833 ± 0.017 | 0.597 ± 0.019 | 0.526 ± 0.0067 | 0.489 ± 0.0072 | 0.461 ± 0.02 | 0.361 ± 0.028 | – | – | – | – | – | – | – | – | – | – | –
15 | COc1cc2nccc(Oc3ccc(NC(=O)Nc4cc(C)on4)c(Cl)c3)c2cc1OC [Tivozanib] | 1.01 ± 0.022 | 0.999 ± 0.029 | 1.05 ± 0.04 | 1.05 ± 0.037 | 1.03 ± 0.038 | 0.9926 ± 0.0016 | 0.989 ± 0.036 | 1.08 ± 0.044 | 1.16 ± 0.043 | 0.908 ± 0.058 | 0.462 ± 0.015 | – | – | – | – | – | – | – | – | – | – | –
16 | C[C@@H]1CCN(C(=O)CC#N)C[C@@H]1N(C)c1ncnc2[nH]ccc12 [Tofacitinib] | 1.08 ± 0.053 | 1.05 ± 0.057 | 1.1 ± 0.057 | 1.11 ± 0.042 | 1.09 ± 0.064 | 1.07 ± 0.031 | 1.062 ± 0.0089 | 1.07 ± 0.022 | 1.07 ± 0.039 | 1.03 ± 0.039 | 0.902 ± 0.056 | – | – | – | – | – | – | – | – | – | – | –
17 | COc1cc2c(cc1O)CCN[C@]21CS[C@@H]2c3c(OC(C)=O)c(C)c4c(c3[C@H](COC1=O)N1[C@@H]2[C@H]2c3c(cc(C)c(OC)c3O)C[C@@H]([C@@H]1O)N2C)OCO4 [Trabectedin] | – | – | – | – | – | – | – | – | – | – | – | 1.06 ± 0.08 | 1.04 ± 0.026 | 1.03 ± 0.043 | 1.06 ± 0.045 | 1.07 ± 0.052 | 0.848 ± 0.04 | 0.255 ± 0.014 | 0.332 ± 0.006 | 0.35 ± 0.014 | 1.03 ± 0.076 | 1.06 ± 0.048
18 | CC(=O)Nc1cccc(-n2c(=O)n(C3CC3)c(=O)c3c(Nc4ccc(I)cc4F)n(C)c(=O)c(C)c32)c1 [Trametinib] | 1.01 ± 0.027 | 1.02 ± 0.06 | 1.06 ± 0.03 | 0.905 ± 0.034 | 0.575 ± 0.025 | 0.399 ± 0.01 | 0.327 ± 0.0053 | 0.27 ± 0.0086 | 0.25 ± 0.0039 | 0.225 ± 0.0081 | 0.193 ± 0.0022 | – | – | – | – | – | – | – | – | – | – | –
19 | Cc1cc(Nc2ncnc3ccc(NC4=NC(C)(C)CO4)cc23)ccc1Oc1ccn2ncnc2c1 [Tucatinib] | 1.1 ± 0.022 | 1.09 ± 0.06 | 1.08 ± 0.041 | 1.09 ± 0.058 | 1.08 ± 0.047 | 1.08 ± 0.034 | 1.08 ± 0.033 | 1.09 ± 0.055 | 1.09 ± 0.045 | 1.05 ± 0.025 | 0.7801 ± 0.0053 | – | – | – | – | – | – | – | – | – | – | –
